Here are results for 71 compounds from the OPERA property sets (Mansouri et al. 2018).

Conditions in one data set: not given
Regarding `CCCCCC(=O)OCCCC`, the boiling point was determined as 208 °C and the melting point is -64.3 °C.
Consider `Brc1cc(Br)c(Br)c(Oc2ccc(Br)c(Br)c2Br)c1`, for which the ready biodegradability entry was “not readily biodegradable”.
`CC=CC(OCC)OCC` registered a boiling point of 148 °C.
For the compound `CC(=O)N1CCCC(C)C1` (centres undefined), the boiling point turned out to be 239 °C and the melting point was -13.6 °C.
For `Cc1cc(C(C)(C)C)c(C)cc1O` the same measures were 264 °C and 71.2 °C.
For `O=C1NCc2ccccc21` the same measures were 338 °C and 151 °C.
Take `NC(=O)c1ccc(N)cc1`: the melting point is 182 °C.
The same measure, in the same setting: as for `CN(C)c1ccc2c(c1)Sc1cc(N(C)C)ccc1N2C(=O)c1ccccc1`, the figure is 195 °C.
The same measure, in the same setting: as for `CCCS(=O)CCC`, the figure is 22.5 °C.
For `C=C(Br)c1ccccc1`, the melting point is -44 °C and the ready biodegradability entry is “not readily biodegradable”.
The compound `Cl.Nc1ccccc1` registered a melting point of 198 °C.
For the compound `Clc1ccc(-c2ccccc2)cc1Cl`, the log10 Henry constant (atm·m³/mol) is -3.85.
On to `CC(C)OC(=O)C(C)(C)Oc1ccc(C(=O)c2ccc(Cl)cc2)cc1`, for which the melting point turned out to be 80.5 °C.
`Cc1cc(CC(C)CC(C)(C)C)n(O)c(=O)c1` (centres undefined) gave a melting point of 108 °C.
In the case of `CC=C(C)Cl`, the boiling point was 64.5 °C and the melting point was -19 °C.
As to `Nc1ccc(C(=O)NCC(=O)O)cc1`, the melting point turned out to be 198 °C.
Consider `O=C(O)CCCCCCCCC(=O)O`, for which the log10 vapour pressure (mmHg) is -7.26, the melting point is 131 °C and the ready biodegradability result was “readily biodegradable”.
In turn, `CC(C)=CCCC=C(C)C` had a boiling point of 166 °C and a melting point of -74.4 °C.
`O=S(=O)(Oc1ccc(Cl)cc1)c1ccc(Cl)cc1`: the melting point was determined as 86.5 °C and the ready biodegradability entry is recorded as “not readily biodegradable”.
Consider `CC(=O)NN`, for which the melting point is 67 °C.
Same read-out and setting: as for `O=C1c2ccc(O)c(O)c2C(=O)c2ccc(O)c(O)c21`, the figure is 340 °C.
Turning to `CCCCC/C=C\C/C=C\CCCCCCCC(=O)OC`, the log10 vapour pressure (mmHg) was -5.44 and the melting point is -35 °C.
The compound `O=CC=CC=Cc1ccccc1` displayed a melting point of 42.5 °C.
Compound `O=C(O)C1C(c2ccccc2)C(C(=O)O)C1c1ccccc1` (centres undefined) yielded a melting point of 228 °C.
For `COC(=O)c1cccc(C)c1S(=O)(=O)NC(=O)Nc1nc(OCC(F)(F)F)nc(N(C)C)n1`, the log10 Koc (L/kg) is 1.84.
Regarding `Brc1c(Br)c(Br)c(-c2c(Br)c(Br)c(Br)c(Br)c2Br)c(Br)c1Br`, the log10 vapour pressure (mmHg) was -9.4, the melting point worked out at 375 °C and the ready biodegradability result was “not readily biodegradable”.
Turning to `FC(Br)Br`, the boiling point was 64.9 °C and the melting point is -78 °C.
Consider `C=CC(C)(O)CCC=C(C)C` (centres undefined), for which the boiling point stood at 198 °C, the log10 Henry constant (atm·m³/mol) is -4.67, the log10 vapour pressure (mmHg) is -0.796 and the ready biodegradability result is on record as “readily biodegradable”.
Consider `CCOC(=O)Cn1c(=O)sc2cccc(Cl)c21`, for which the log10 vapour pressure (mmHg) is -5.56 and the melting point was 79.2 °C.
`CCN(CC)C(=O)C(Cl)(Cl)Cl` showed a melting point of 27 °C.
The same measure, in the same setting: as for `O=C(OCc1ccco1)c1ccco1`, the figure is 27.5 °C.
Consider `C=CC=CC=C`, for which the boiling point worked out at 78 °C, the log10 vapour pressure (mmHg) came out at 1.95 and the melting point is -12 °C.
For `O=C(CCl)CCl` the same measures were 173 °C, -0.202 and 45 °C.
As to `CCN(CC)CCOCCO`, the boiling point was 222 °C.
The compound `CCCCCCCCCCCCCCCCO` showed a boiling point of 334 °C, a log10 Koa of 9.9, a log10 vapour pressure (mmHg) of -5.22 and a melting point of 49.3 °C. Also, the ready biodegradability result is “readily biodegradable”.
Turning to `CC(C)(C)C(=O)C(=O)O`, the boiling point was 189 °C and the melting point came out at 90.5 °C.
For the compound `CCCCCCCCCCc1ccc(N)cc1`, the melting point came to 25 °C.
Still for that read-out and setting: the result for `O=C(O)c1nc[nH]c1C(=O)O` reads 288 °C.
`CC1(C)CC1` registered a boiling point of 20.6 °C and a melting point of -109 °C.
On to `Clc1ccc(-c2ccccc2Cl)c(Cl)c1`, for which the log10 Koc (L/kg) was determined as 4.84.
In turn, `CC(C)OC(=O)OOC(=O)OC(C)C` registered a melting point of 10 °C.
`COc1ccc(C(O)(c2cncnc2)C2CC2)cc1` (centres undefined): the log10 Henry constant (atm·m³/mol) is -10.8, the log10 Koc (L/kg) was found to be 2.08, the log10 vapour pressure (mmHg) is -6.7 and the melting point was 110 °C.
For `Cc1c(Cl)cc(-c2ccc(O)nn2)cc1Cl`, the melting point stood at 252 °C.
With `CCN1C(=O)CCC1=O`, the boiling point is 236 °C and the melting point was determined as 26 °C.
`c1ccc(-c2ccncn2)cc1`: the melting point turned out to be 56 °C.
The same measure, in the same setting: the result for `NC(=O)C1CCN(CCCN2c3ccccc3Sc3ccc(Cl)cc32)CC1` reads 139 °C.
`O=C1CCCCC1C1CCCCC1` (centres undefined) returned a boiling point of 264 °C and a melting point of -32 °C.
`O=C(O)c1c(Cl)c(Cl)c(Cl)c(Cl)c1C(=O)O` gave a log10 Koc (L/kg) of 3.3.
On to `O=C(O)Cc1ccccc1O`, for which the boiling point was found to be 240 °C and the melting point was 148 °C.
As to `C(CC1CCNCC1)CC1CCNCC1`, the boiling point worked out at 329 °C and the melting point is 67.1 °C.
Turning to `Clc1ccc(Cl)c(-c2ccccc2Cl)c1`, the log10 Henry constant (atm·m³/mol) is -3.6, the log10 Koa was 7.6, the log10 Koc (L/kg) worked out at 4.4 and the log10 vapour pressure (mmHg) was -2.98.
In the case of `C[C@H](NC(=O)[C@H](C)NC(=O)[C@@H](N)CCP(C)(=O)O)C(=O)[O-].[Na+]`, the melting point worked out at 160 °C.
`c1ccc(CC2CCCCN2)cc1` (centres undefined) came in with a boiling point of 268 °C and a melting point of 32 °C.
With `Fc1ccccc1`, the boiling point is 84.7 °C, the log10 Henry constant (atm·m³/mol) was -2.2, the log10 vapour pressure (mmHg) turned out to be 1.89 and the melting point was -42.2 °C.
Compound `CCCCC(CC)CNCC(CC)CCCC` (centres undefined) had a boiling point of 281 °C, a log10 vapour pressure (mmHg) of -2 and a melting point of -60 °C.
In turn, `Nc1ccccc1[N+](=O)[O-]` gave a boiling point of 284 °C, a log10 Henry constant (atm·m³/mol) of -7.23, a log10 vapour pressure (mmHg) of -2.56 and a melting point of 71 °C. For the same compound, the ready biodegradability entry is “not readily biodegradable”.
`CCOC(=O)C(=O)c1ccccc1` gave a boiling point of 256 °C.
For the compound `CCCCCCCCN(CCCCCCCC)CCCCCCCC`, the boiling point amounted to 366 °C and the ready biodegradability result is “readily biodegradable”.
The compound `CNCCOC(=O)/C=C1/CC[C@H]2[C@@H]([C@@H](O)C[C@@H]3[C@]2(C)CCC[C@]3(C)C(=O)OC)[C@H]1C` yielded a melting point of 115 °C.
As to `N#CCc1ccccc1F`, the boiling point came out at 232 °C.
Consider `Cc1ccccc1S(N)(=O)=O`, for which the ready biodegradability result is listed as “not readily biodegradable”.
Take `Brc1ccc(Oc2ccccc2)cc1Br`: the log10 Koa is 8.55.
As for `CC(C)OC(=O)[C@@H](C)N(C(=O)c1ccccc1)c1ccc(F)c(Cl)c1`, the log10 vapour pressure (mmHg) was -6.2.
The compound `CCc1ccccc1-c1ccccc1` showed a boiling point of 266 °C and a melting point of -6 °C.
In turn, `Clc1cc(Cl)cc(Oc2ccccc2)c1` displayed a log10 vapour pressure (mmHg) of -3.
For `C[Si](Cl)(c1ccccc1)c1ccccc1`, the boiling point stood at 295 °C.
`Cc1ccc(C(=O)c2csc(S(N)(=O)=O)c2)cc1`: the melting point is 176 °C.
Consider `C=CCCCBr`, for which the boiling point was found to be 126 °C.
`Clc1ccc(Cl)c(-c2ccccc2)c1Cl` gave a log10 Henry constant (atm·m³/mol) of -3.66.
Turning to `C=C(CCC)CCC`, the boiling point worked out at 118 °C.
For `CCCCC(CC)COC(=O)CC(C(=O)OCC(CC)CCCC)S(=O)(=O)[O-].[Na+]` (centres undefined), the melting point is 176 °C.

Still in this data set, the particulars now being: fish.
In turn, `Brc1c(Br)c(Br)c(-c2c(Br)c(Br)c(Br)c(Br)c2Br)c(Br)c1Br` had a log10 BCF of 5.19.
The compound `Clc1ccc(Cl)c(-c2ccccc2Cl)c1` gave a log10 BCF of 4.23 and a log10 biotransformation half-life (days) of 1.87.
With `Nc1ccccc1[N+](=O)[O-]`, the log10 BCF turned out to be 1 and the log10 biotransformation half-life (days) was -0.46.
The compound `CCCCCCCCN(CCCCCCCC)CCCCCCCC` came in with a log10 BCF of 1.93.
As for `Cc1ccccc1S(N)(=O)=O`, the log10 BCF came out at 0.41 and the log10 biotransformation half-life (days) is -0.89.

What is called boiling point is the temperature of boiling at a given pressure. By melting point is commonly meant the temperature of the solid-liquid transition.
